# According to paper PMC12638379, “An innovative approach to development of new pyrazolylquinolin-2-one hybrids as dual EGFR and BRAF^V600E inhibitors” (Molecular Diversity, 2025):
# Where two headings read alike, the source gives them in different places.
# Assays:
# [1] = MTT cytotoxicity on normal cell line WI-38; settings: human, WI-38 normal cells, % viability
# normal cell line WI-38 = assay: MTT cytotoxicity on normal cell line WI-38
# NCI 60 cancer cell lines = assay: NCI anticancer screening over a panel of 60 cancer cells, single concentration 10 µM; type: cell-based, human; settings: Homo sapiens, read-out: % Growth Inhibition (GI %)
# Method in brief: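 Run under the NCI Compound Evaluation Branch protocol, each compound was tested once at 10 µM. The panel comprised 60 cancer cell lines of diverse tissue origin, including leukemia, lung, colon, CNS, renal, ovarian, breast and prostate.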
# [2] = system: breast cancer (T47D) cell line; assay: MTT antiproliferative assay, T-47D
# Method in brief: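 HOP-92, MOLT-4 and T-47D cells in DMEM/10% FBS/insulin exposed 24 h to serial 10-fold dilutions […]; MTT added 2–4 h, absorbance at 570 nm with 690 nm background subtraction. Percent viable cells gives IC50; GI50 is the average IC50 across the three lines.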
# [3] = system: leukemia (MOLT-4) cell line; assay: MTT antiproliferative assay, MOLT-4; type: cell-based, human
# Description: After 24 h of culture incubation and supernatants discarded.
# EGFR = molecular target: T1, EGFR (Homo sapiens, UniProt P00533); assay: EGFR inhibitory assay; type: biochemical; settings: for %inh: EGFR, unit not given
# T1 construct: EGFR cytoplasmic domain (EGFR-CD, amino acids 645–1186); His6 (N); made in house; host or cells: Sf-9 insect cells (baculovirus)
# T1 sequence (P00533 669-1210): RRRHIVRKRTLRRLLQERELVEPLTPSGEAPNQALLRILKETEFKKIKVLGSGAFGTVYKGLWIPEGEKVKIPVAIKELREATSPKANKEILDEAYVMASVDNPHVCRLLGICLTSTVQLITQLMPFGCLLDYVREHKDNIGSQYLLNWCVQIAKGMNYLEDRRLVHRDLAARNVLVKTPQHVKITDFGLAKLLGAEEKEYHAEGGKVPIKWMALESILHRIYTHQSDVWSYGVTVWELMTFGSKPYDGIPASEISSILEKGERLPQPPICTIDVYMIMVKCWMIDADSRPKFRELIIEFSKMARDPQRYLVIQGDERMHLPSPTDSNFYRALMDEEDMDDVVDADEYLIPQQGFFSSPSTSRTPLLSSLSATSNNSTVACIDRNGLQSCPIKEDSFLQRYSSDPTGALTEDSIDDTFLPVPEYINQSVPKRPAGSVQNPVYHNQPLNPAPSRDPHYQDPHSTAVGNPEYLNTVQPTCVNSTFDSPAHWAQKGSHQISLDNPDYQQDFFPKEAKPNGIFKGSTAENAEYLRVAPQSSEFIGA
smiles,measurement,setting,value
"C/C(=N\Nc1ccc(C(=O)O)cc1)c1cnn(-c2cc(=O)[nH]c3ccccc23)c1C [Compound 4f, (E)-4-(2-(1-(5-methyl-1-(2-oxo-1,2-dihydroquinolin-4-yl)-1H-pyrazol-4-yl)ethylidene) hydrazineyl)benzoic acid]","viability at 24 h, 0.4 µM","[1]; WI38, 0.4uM (log conc. -0.41)",80%
same,"viability at 24 h, 1.6 µM","[1]; WI38, 1.6uM (log conc. 0.19)",74.5%
same,"viability at 24 h, 6.3 µM","[1]; WI38, 6.3uM (log conc. 0.8)",65.4%
same,"viability at 24 h, 25 µM","[1]; WI38, 25uM (log conc. 1.4)",54.9%
same,"viability at 24 h, 100 µM","[1]; WI38, 100uM (log conc. 2)",41.6%
same,IC50,"normal cell line WI-38; Homo sapiens, read-out: Antiproliferative activity IC50 ± SEM",42.1 ± 1.68 µM
same,% viability,"normal cell line WI-38; WI38, 0.4uM (log conc. -0.41), listed as ws6, 0.4 µM",79.9762%
same,% viability,"normal cell line WI-38; WI38, 1.6uM (log conc. 0.19), listed as ws6, 1.6 µM",74.5098%
same,% viability,"normal cell line WI-38; WI38, 6.3uM (log conc. 0.8), listed as ws6, 6.3 µM",65.3595%
same,% viability,"normal cell line WI-38; WI38, 100uM (log conc. 2), listed as ws6, 100 µM",41.5924%
same,inhibition at 10 µM,"NCI 60 cancer cell lines; 786-0, Renal cancer 786-0, 10 μM",< 5%
same,inhibition at 10 µM,"NCI 60 cancer cell lines; A498, Renal cancer A498, 10 μM",< 5%
same,inhibition at 10 µM,"NCI 60 cancer cell lines; A549, Non-small cell lung cancer A549/ATCC, 10 μM",< 5%
same,inhibition at 10 µM,"NCI 60 cancer cell lines; ACHN, Renal cancer ACHN, 10 μM",5.83%
same,inhibition at 10 µM,"NCI 60 cancer cell lines; BT-549, Breast cancer BT-549, 10 μM",< 5%
same,inhibition at 10 µM,"NCI 60 cancer cell lines; CAKI-1, Renal cancer CAKI-1, 10 μM",16.1%
same,inhibition at 10 µM,"NCI 60 cancer cell lines; CCRF-CEM, Leukemia CCRF-CEM, 10 μM",< 5%
same,inhibition at 10 µM,"NCI 60 cancer cell lines; COLO 205, Colon cancer COLO 205, 10 μM",< 5%
same,inhibition at 10 µM,"NCI 60 cancer cell lines; DU-145, Prostate cancer DU-145, 10 μM",< 5%
same,inhibition at 10 µM,"NCI 60 cancer cell lines; EKVX, Non-small cell lung cancer EKVX, 10 μM",< 5%
same,inhibition at 10 µM,"NCI 60 cancer cell lines; HCC 2998, Colon cancer HCC-2998, 10 μM",< 5%
same,inhibition at 10 µM,"NCI 60 cancer cell lines; HCT-15, Colon cancer HCT-15, 10 μM",< 5%
same,inhibition at 10 µM,"NCI 60 cancer cell lines; HCT-116, Colon cancer HCT-116, 10 μM",< 5%
same,inhibition at 10 µM,"NCI 60 cancer cell lines; HL-60, Leukemia HL-60(TB), 10 μM",< 5%
same,inhibition at 10 µM,"NCI 60 cancer cell lines; HOP-62, Non-small cell lung cancer HOP-62, 10 μM",8.55%
same,inhibition at 10 µM,"NCI 60 cancer cell lines; HOP-92, Non-small cell lung cancer HOP-92, 10 μM",79.8%
same,inhibition at 10 µM,"NCI 60 cancer cell lines; HT-29, Colon cancer HT29, 10 μM",< 5%
same,inhibition at 10 µM,"NCI 60 cancer cell lines; Hs-578T, Breast cancer HS 578T, 10 μM",12.3%
same,inhibition at 10 µM,"NCI 60 cancer cell lines; IGROV-1, Ovarian cancer IGROV1, 10 μM",< 5%
same,inhibition at 10 µM,"NCI 60 cancer cell lines; K562, Leukemia K-562, 10 μM",< 5%
same,inhibition at 10 µM,"NCI 60 cancer cell lines; KM12, Colon cancer KM12, 10 μM",< 5%
same,inhibition at 10 µM,"NCI 60 cancer cell lines; LOX IMVI, Melanoma LOX IMVI, 10 μM",10.8%
same,inhibition at 10 µM,"NCI 60 cancer cell lines; Leukemia SR, 10 μM",12.2%
same,inhibition at 10 µM,"NCI 60 cancer cell lines; MCF7, Breast cancer MCF7, 10 μM",5.99%
same,inhibition at 10 µM,"NCI 60 cancer cell lines; MDA-MB-231, Breast cancer MDA-MB-231/ATCC, 10 μM",12.5%
same,inhibition at 10 µM,"NCI 60 cancer cell lines; MDA-MB-435, Melanoma MDA-MB-435, 10 μM",< 5%
same,inhibition at 10 µM,"NCI 60 cancer cell lines; MDA-MB-468, Breast cancer MDA-MB-468, 10 μM",< 5%
same,inhibition at 10 µM,"NCI 60 cancer cell lines; MOLT-4, Leukemia MOLT-4, 10 μM",< 5%
same,inhibition at 10 µM,"NCI 60 cancer cell lines; Melanoma M14, 10 μM",8.95%
same,inhibition at 10 µM,"NCI 60 cancer cell lines; Melanoma MALM-3M, 10 μM",9.22%
same,inhibition at 10 µM,"NCI 60 cancer cell lines; NCI-H23, Non-small cell lung cancer NCI-H23, 10 μM",7.19%
same,inhibition at 10 µM,"NCI 60 cancer cell lines; NCI-H226, Non-small cell lung cancer NCI-H226, 10 μM",10.9%
same,inhibition at 10 µM,"NCI 60 cancer cell lines; NCI-H322M, Non-small cell lung cancer NCI-H322M, 10 μM",< 5%
same,inhibition at 10 µM,"NCI 60 cancer cell lines; NCI-H460, Non-small cell lung cancer NCI-H460, 10 μM",< 5%
same,inhibition at 10 µM,"NCI 60 cancer cell lines; NCI-H522, Non-small cell lung cancer NCI-H522, 10 μM",13.9%
same,inhibition at 10 µM,"NCI 60 cancer cell lines; NCI/ADR-RES, Ovarian cancer NCI/ADR-RES, 10 μM",< 5%
same,inhibition at 10 µM,"NCI 60 cancer cell lines; OVCAR-3, Ovarian cancer OVCAR-3, 10 μM",< 5%
same,inhibition at 10 µM,"NCI 60 cancer cell lines; OVCAR-4, Ovarian cancer OVCAR-4, 10 μM",7.33%
same,inhibition at 10 µM,"NCI 60 cancer cell lines; OVCAR-5, Ovarian cancer OVCAR-5, 10 μM",< 5%
same,inhibition at 10 µM,"NCI 60 cancer cell lines; OVCAR-8, Ovarian cancer OVCAR-8, 10 μM",< 5%
same,inhibition at 10 µM,"NCI 60 cancer cell lines; Prostate cancer PC-3, 10 μM",12.4%
same,inhibition at 10 µM,"NCI 60 cancer cell lines; RPMI-8226, Leukemia RPMI-8226, 10 μM",< 5%
same,inhibition at 10 µM,"NCI 60 cancer cell lines; RXF 393, Renal cancer RXF 393, 10 μM",11.1%
same,inhibition at 10 µM,"NCI 60 cancer cell lines; SF-268, CNS Cancer SF-268, 10 μM",< 5%
same,inhibition at 10 µM,"NCI 60 cancer cell lines; SF-295, CNS Cancer SF-295, 10 μM",< 5%
same,inhibition at 10 µM,"NCI 60 cancer cell lines; SF-539, CNS Cancer SF-539, 10 μM",< 5%
same,inhibition at 10 µM,"NCI 60 cancer cell lines; SK-MEL-2, Melanoma SK-MEL-2, 10 μM",< 5%
same,inhibition at 10 µM,"NCI 60 cancer cell lines; SK-MEL-5, Melanoma SK-MEL-5, 10 μM",< 5%
same,inhibition at 10 µM,"NCI 60 cancer cell lines; SK-MEL-28, Melanoma SK-MEL-28, 10 μM",< 5%
same,inhibition at 10 µM,"NCI 60 cancer cell lines; SK-OV-3, Ovarian cancer SK-OV-3, 10 μM",< 5%
same,inhibition at 10 µM,"NCI 60 cancer cell lines; SN12C, Renal cancer SN12C, 10 μM",< 5%
same,inhibition at 10 µM,"NCI 60 cancer cell lines; SNB-19, CNS Cancer SNB-19, 10 μM",< 5%
same,inhibition at 10 µM,"NCI 60 cancer cell lines; SNB-75, CNS Cancer SNB-75, 10 μM",12.9%
same,inhibition at 10 µM,"NCI 60 cancer cell lines; SW-620, Colon cancer SW-620, 10 μM",< 5%
same,inhibition at 10 µM,"NCI 60 cancer cell lines; T47D, Breast cancer T-47D, 10 μM",< 5%
same,inhibition at 10 µM,"NCI 60 cancer cell lines; TK-10, Renal cancer TK-10, 10 μM",< 5%
same,inhibition at 10 µM,"NCI 60 cancer cell lines; U-251, CNS Cancer U251, 10 μM",< 5%
same,inhibition at 10 µM,"NCI 60 cancer cell lines; UACC-62, Melanoma UACC-62, 10 μM",6.43%
same,inhibition at 10 µM,"NCI 60 cancer cell lines; UACC-257, Melanoma UACC-257, 10 μM",< 5%
same,inhibition at 10 µM,"NCI 60 cancer cell lines; UO-31, Renal cancer UO-31, 10 μM",45.2%
same,viability at 0.4 µM,"[2]; Homo sapiens, T47D, T-47D, MTT, 0.4uM",78.6%
same,viability at 1.6 µM,"[2]; Homo sapiens, T47D, T-47D, MTT, 1.6uM",72.1%
same,viability at 6.3 µM,"[2]; Homo sapiens, T47D, T-47D, MTT, 6.3uM",61.4%
same,viability at 25 µM,"[2]; Homo sapiens, T47D, T-47D, MTT, 25uM",50.1%
same,viability at 100 µM,"[2]; Homo sapiens, T47D, T-47D, MTT, 100uM",41.1%
same,IC50,"[2]; Homo sapiens, T47D, read-out: Antiproliferative activity IC50 ± SEM, T-47D, MTT",28.6 ± 0.99 µM
same,% viability,"[2]; T-47D, MTT, 1.6uM, listed as ws6, 1.6 µM",72.1271%
same,% viability,"[2]; T-47D, MTT, 6.3uM, listed as ws6, 6.3 µM",61.3692%
same,% viability,"[2]; T-47D, MTT, 100uM, listed as ws6, 100 µM",41.0758%
same,viability at 0.4 µM,"[3]; Homo sapiens, MOLT-4, MOLT-4, MTT, 0.4uM",70.3%
same,viability at 1.6 µM,"[3]; Homo sapiens, MOLT-4, MOLT-4, MTT, 1.6uM",59.6%
same,viability at 6.3 µM,"[3]; Homo sapiens, MOLT-4, MOLT-4, MTT, 6.3uM",58.5%
same,viability at 25 µM,"[3]; Homo sapiens, MOLT-4, MOLT-4, MTT, 25uM",48.1%
same,viability at 100 µM,"[3]; Homo sapiens, MOLT-4, MOLT-4, MTT, 100uM",39.1%
same,IC50,"[3]; Homo sapiens, MOLT-4, MTT, read-out: Antiproliferative activity IC50 ± SEM, MOLT-4",16.3 ± 0.65 µM
same,% viability,"[3]; MOLT-4, MTT, 0.4uM, listed as ws6, 0.4 µM",70.3059%
same,% viability,"[3]; MOLT-4, MTT, 1.6uM, listed as ws6, 1.6 µM",59.5561%
same,% viability,"[3]; MOLT-4, MTT, 6.3uM, listed as ws6, 6.3 µM",58.5483%
same,% viability,"[3]; MOLT-4, MTT, 100uM, listed as ws6, 100 µM",39.1122%
same,%inh,EGFR; conc 0.01 (log -2),10.6%
same,%inh,EGFR; conc 0.1 (log -1),26%
same,%inh,EGFR; conc 1 (log 0),61.8%
same,%inh,EGFR; conc 10 (log 1),80.6%
same,%inh,EGFR; conc 100 (log 2),92.1%
same,IC50,EGFR; read-out: EGFR inhibition IC50 ± SEM,0.64 ± 0.023 µM
